From patent US20080194466A1, “(5Z)-5-(6-Quinoxalinylmethylidene)-2-[(2,4,6-Trichlorophenyl)Amino]-1,3-Thiazol-4(5H)-One” (priority 2005, published 2008)
Counter-ions that a name gives are not always drawn.

Legend:
[1] = Oral bioavailability (blood exposure, DNAUC) in rats; type: in vivo, male Sprague-Dawley rats; conditions: for Oral DNAUC rats (Sprague-Dawley): sodium salts, oral gavage, dose ~1-4 mg/kg, 50% PEG-400, 10% ethanol, 40% of 40% (w/v) aqueous Encapsin, blood, LC/MS/MS, 0-1440 min
Method: The sodium salt of Compound A was fed to male Sprague-Dawley rats by oral gavage in a formulation with 50% PEG-400, 10% ethanol, 40% of 40% (w/v) aqueous Encapsin in water at a dose of between 1 and 4 mg/kg (16 mL of dose solution per kg). Blood (120 microliters) was sampled at the following time intervals: 0, 20, 40, 60, 120, 180, 240, 360, 480, and 1440 min. The concentration of Compound A was quantified by LC/MS/Ms analysis of an aliquot (25 microliters blood+25 microliters water) of these samples and the overall blood exposure reported as the Dose-Normalised Area Under the Curve (DNAUC) from a concentration versus time plot and expressed in the units microgram hours per milliliter per […] per kilogram (ug.h/mL/mg/kg). The oral exposures of the sodium salt of Compound B and the sodium salt of Compound C were quantified by the same method.

[2] = biological target: T1, hYAK3 kinase enzyme (Homo sapiens, UniProt O43781); test: in vitro hYAK3 kinase enzyme inhibition; type: biochemical; conditions: in vitro assays; compared with Compound B and Compound C
T1 sequence (O43781 1-588): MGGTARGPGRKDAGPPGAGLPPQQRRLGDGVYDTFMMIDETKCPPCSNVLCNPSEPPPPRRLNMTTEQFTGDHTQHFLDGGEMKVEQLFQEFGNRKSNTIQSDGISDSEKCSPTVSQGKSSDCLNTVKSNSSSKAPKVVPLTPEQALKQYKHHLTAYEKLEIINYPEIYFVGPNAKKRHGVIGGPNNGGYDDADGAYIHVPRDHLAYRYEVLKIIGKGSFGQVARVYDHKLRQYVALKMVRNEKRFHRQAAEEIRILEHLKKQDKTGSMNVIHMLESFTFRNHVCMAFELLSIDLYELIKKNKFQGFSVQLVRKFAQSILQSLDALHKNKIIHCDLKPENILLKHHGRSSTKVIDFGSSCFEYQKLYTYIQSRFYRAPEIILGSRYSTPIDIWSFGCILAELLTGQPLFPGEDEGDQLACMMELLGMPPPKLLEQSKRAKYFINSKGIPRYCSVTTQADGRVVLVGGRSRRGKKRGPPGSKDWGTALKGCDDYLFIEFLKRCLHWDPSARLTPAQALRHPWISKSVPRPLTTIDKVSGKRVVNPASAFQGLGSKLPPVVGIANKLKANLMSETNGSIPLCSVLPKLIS
Method: Compound A is tested for its ability to inhibit the hYAK3 kinase enzyme by known methods such as those described in International Application No. PCT/US2003/037658.

Oral DNAUC rats (Sprague-Dawley) [1] | Compound | bioavailability in vivo ([1]; compared with the most closely related compounds of PCT/US2003/037658) | hYAK3 kinase enzyme inhibition activity [2]
 | O=C1NC(=Nc2c(Cl)cc(Cl)cc2Cl)S/C1=C\c1ccc2nccnc2c1 [Compound A, (5Z)-5-(6-quinoxalinylmethylidene)-2-[(2,4,6-trichlorophenyl)amino]-1,3-thiazol-4(5H)-one] | significantly greater bioavailability in vivo | activity similar to Compound B (described herein) and Compound C
0.49 ug · h/mL/min/kg | O=C1NC(=Nc2c(Cl)cccc2Cl)S/C1=C\c1ccc2ncccc2c1 [Compound B•Na, 2-(2,6-dichloro-phenylimino)-5-(quinolin-6-ylmethylene)-thiazolidin-4-one sodium salt, reference compound] |  | 
0.34 ug · h/mL/min/kg | O=C1NC(=Nc2ccccc2Cl)S/C1=C\c1ccc2nccnc2c1 [C•Na, 2-(2-chloro-phenylimino)-5-(quinoxalin-6-ylmethylene)-thiazolidin-4-one sodium salt, reference compound] |  | 
26.11 ug · h/mL/min/kg | O=C1N=C(Nc2c(Cl)cc(Cl)cc2Cl)S/C1=C\c1ccc2nccnc2c1.[Na] [Compound A•Na, (5Z)-5-(6-quinoxalinylmethylidene)-2-[(2,4,6-trichlorophenyl)amino]-1,3-thiazol-4(5H)-one sodium salt] |  | 
